# Reference: ChEMBL document CHEMBL3885861, “Open TG-GATES”
# Species: Rattus norvegicus
# Assay: Open TG-GATES - Regimen: Single
# Type: toxicity, organism-based, Sprague-Dawley
# Parameters: regimen Single, gender Male, age 6 weeks
# Conditions: in vivo, po, route gavage; for Eos / Fbg / Hb / Ht / Lym / MCH / MCHC / MCV / Mono / Neu / PT / Plat / RBC / Ret / APTT / Bas / WBC: tissue Blood; for KIDNEY_L / KIDNEY_R / KIDNEY_TOTAL: tissue Kidney; for LIVER: tissue Liver; for ALP / ALT / AST / BUN / CRE / Ca / DBIL / GLC / IP / K / LDH / Na / PL / RALB / TBIL / TC / TG / TP / gamma-GTP: tissue Plasma
# [1] = 50 mg/kg, 3 h, dose level Middle
# [2] = 50 mg/kg, 6 h, dose level Middle
# [3] = 50 mg/kg, 9 h, dose level Middle
# [4] = 50 mg/kg, 24 h, dose level Middle
# [5] = 150 mg/kg, 3 h, dose level High
# [6] = 150 mg/kg, 6 h, dose level High
# [7] = 150 mg/kg, 9 h, dose level High
# [8] = 150 mg/kg, 24 h, dose level High
structure (smiles),measurement,setting,value
Oc1ncnc2[nH]ncc12 [ALLOPURINOL],Eos,[1],0.8%
same,Fbg,[1],209.6 mg/dL
same,Hb,[1],14 g/dL
same,Ht,[1],41.6%
same,Lym,[1],80%
same,MCH,[1],21.9 pg
same,MCHC,[1],33.7%
same,MCV,[1],64.9 fL
same,Mono,[1],8.2%
same,Neu,[1],11.2%
same,PT,[1],12.2 s
same,Plat,[1],109.1 x10_4/uL
same,RBC,[1],640.4 x10_4/ul
same,Ret,[1],7.8%
same,KIDNEY_L,[1],1 g
same,KIDNEY_R,[1],1.1 g
same,KIDNEY_TOTAL,[1],2.1 g
same,LIVER,[1],9.9 g
same,ALP,[1],877.8 IU/L
same,ALT,[1],30.4 IU/L
same,AST,[1],62.8 IU/L
same,BUN,[1],15.6 mg/dL
same,CRE,[1],0.6 mg/dL
same,Ca,[1],11.2 mg/dL
same,DBIL,[1],0.1 mg/dL
same,GLC,[1],195.4 mg/dL
same,IP,[1],9.9 mg/dL
same,K,[1],4.6 meq/L
same,LDH,[1],90.6 IU/L
same,Na,[1],140 meq/L
same,PL,[1],136.2 mg/dL
same,RALB,[1],3.8 g/dL
same,TBIL,[1],0.4 mg/dL
same,TC,[1],80.4 mg/dL
same,TG,[1],36.6 mg/dL
same,TP,[1],5.6 g/dL
same,gamma-GTP,[1],1 IU/L
same,TERMINAL_BW,[2],208.2 g
same,APTT,[2],16.7 s
same,Bas,[2],0%
same,Eos,[2],0.8%
same,Fbg,[2],218.8 mg/dL
same,Hb,[2],13.6 g/dL
same,Ht,[2],40.6%
same,Lym,[2],69%
same,MCH,[2],21.4 pg
same,MCHC,[2],33.5%
same,MCV,[2],64 fL
same,Mono,[2],9.2%
same,Neu,[2],21.2%
same,PT,[2],12.3 s
same,Plat,[2],98.1 x10_4/uL
same,RBC,[2],634 x10_4/ul
same,Ret,[2],8.1%
same,WBC,[2],122.8 x10_2/uL
same,KIDNEY_L,[2],1.1 g
same,KIDNEY_R,[2],1.2 g
same,KIDNEY_TOTAL,[2],2.2 g
same,LIVER,[2],9.5 g
same,ALP,[2],927.4 IU/L
same,ALT,[2],29.6 IU/L
same,AST,[2],63.6 IU/L
same,BUN,[2],15 mg/dL
same,CRE,[2],0.5 mg/dL
same,Ca,[2],11.6 mg/dL
same,DBIL,[2],0.014 mg/dL
same,GLC,[2],185 mg/dL
same,K,[2],4.8 meq/L
same,LDH,[2],81.2 IU/L
same,Na,[2],140 meq/L
same,PL,[2],130.6 mg/dL
same,RALB,[2],3.7 g/dL
same,TBIL,[2],0.4 mg/dL
same,TC,[2],72.4 mg/dL
same,TG,[2],58.8 mg/dL
same,TP,[2],5.5 g/dL
same,gamma-GTP,[2],1 IU/L
same,TERMINAL_BW,[3],207.1 g
same,APTT,[3],16.8 s
same,Bas,[3],0%
same,Eos,[3],1.2%
same,Fbg,[3],222.6 mg/dL
same,Hb,[3],13.7 g/dL
same,Ht,[3],40.9%
same,Lym,[3],67.2%
same,MCH,[3],22 pg
same,MCHC,[3],33.5%
same,MCV,[3],65.9 fL
same,Mono,[3],4.6%
same,Neu,[3],27.4%
same,PT,[3],12.5 s
same,Plat,[3],108.6 x10_4/uL
same,RBC,[3],622 x10_4/ul
same,Ret,[3],8.9%
same,WBC,[3],86.1 x10_2/uL
same,KIDNEY_L,[3],1 g
same,KIDNEY_R,[3],1 g
same,KIDNEY_TOTAL,[3],2 g
same,LIVER,[3],8.8 g
same,ALP,[3],846.2 IU/L
same,ALT,[3],29.4 IU/L
same,AST,[3],60.2 IU/L
same,BUN,[3],12.2 mg/dL
same,CRE,[3],0.4 mg/dL
same,DBIL,[3],0.044 mg/dL
same,GLC,[3],178.4 mg/dL
same,IP,[3],10.9 mg/dL
same,K,[3],4.6 meq/L
same,LDH,[3],80.8 IU/L
same,Na,[3],139.2 meq/L
same,PL,[3],147 mg/dL
same,RALB,[3],3.6 g/dL
same,TBIL,[3],0.4 mg/dL
same,TC,[3],82.8 mg/dL
same,TG,[3],30.2 mg/dL
same,TP,[3],5.5 g/dL
same,gamma-GTP,[3],1.4 IU/L
same,TERMINAL_BW,[4],219.7 g
same,APTT,[4],16.3 s
same,Bas,[4],0%
same,Eos,[4],1.2%
same,Fbg,[4],229.6 mg/dL
same,Hb,[4],13.6 g/dL
same,Ht,[4],40.6%
same,Lym,[4],81.2%
same,MCH,[4],21.2 pg
same,MCHC,[4],33.4%
same,MCV,[4],63.5 fL
same,Mono,[4],4.8%
same,Neu,[4],13.2%
same,PT,[4],12 s
same,Plat,[4],98.8 x10_4/uL
same,RBC,[4],641 x10_4/ul
same,Ret,[4],6.9%
same,WBC,[4],111.4 x10_2/uL
same,KIDNEY_L,[4],1 g
same,KIDNEY_R,[4],1 g
same,KIDNEY_TOTAL,[4],2 g
same,ALP,[4],1004.2 IU/L
same,ALT,[4],32 IU/L
same,AST,[4],63 IU/L
same,BUN,[4],18.6 mg/dL
same,CRE,[4],0.5 mg/dL
same,Ca,[4],11 mg/dL
same,DBIL,[4],0.022 mg/dL
same,GLC,[4],183.4 mg/dL
same,IP,[4],7.9 mg/dL
same,K,[4],4.9 meq/L
same,LDH,[4],88.4 IU/L
same,Na,[4],139.2 meq/L
same,PL,[4],162.4 mg/dL
same,RALB,[4],3.8 g/dL
same,TBIL,[4],0.3 mg/dL
same,TC,[4],81.4 mg/dL
same,TG,[4],120 mg/dL
same,TP,[4],5.8 g/dL
same,gamma-GTP,[4],1.6 IU/L
same,TERMINAL_BW,[5],210.3 g
same,APTT,[5],16.8 s
same,Bas,[5],0%
same,Eos,[5],0.8%
same,Fbg,[5],220.2 mg/dL
same,Hb,[5],13.9 g/dL
same,Ht,[5],41.3%
same,Lym,[5],75%
same,MCH,[5],21.7 pg
same,MCHC,[5],33.6%
same,MCV,[5],64.6 fL
same,Mono,[5],10%
same,Neu,[5],14%
same,PT,[5],12.4 s
same,Plat,[5],112 x10_4/uL
same,RBC,[5],640.6 x10_4/ul
same,Ret,[5],8.1%
same,WBC,[5],82 x10_2/uL
same,KIDNEY_L,[5],1.1 g
same,KIDNEY_R,[5],1.1 g
same,KIDNEY_TOTAL,[5],2.2 g
same,LIVER,[5],9.9 g
same,ALP,[5],830.8 IU/L
same,ALT,[5],34.6 IU/L
same,AST,[5],63.8 IU/L
same,BUN,[5],13 mg/dL
same,CRE,[5],0.5 mg/dL
same,Ca,[5],11.1 mg/dL
same,DBIL,[5],0.046 mg/dL
same,GLC,[5],191.8 mg/dL
same,K,[5],4.7 meq/L
same,LDH,[5],160.4 IU/L
same,Na,[5],140.2 meq/L
same,PL,[5],129.8 mg/dL
same,RALB,[5],3.8 g/dL
same,TBIL,[5],0.4 mg/dL
same,TC,[5],75.8 mg/dL
same,TG,[5],36.6 mg/dL
same,TP,[5],5.6 g/dL
same,gamma-GTP,[5],1.6 IU/L
same,TERMINAL_BW,[6],208.4 g
same,APTT,[6],16.2 s
same,Bas,[6],0%
same,Eos,[6],0.6%
same,Fbg,[6],227.4 mg/dL
same,Hb,[6],14.1 g/dL
same,Ht,[6],42.2%
same,Lym,[6],64.8%
same,MCH,[6],21.8 pg
same,MCHC,[6],33.5%
same,MCV,[6],65.1 fL
same,Mono,[6],6.6%
same,Neu,[6],28%
same,PT,[6],12.3 s
same,RBC,[6],648.6 x10_4/ul
same,Ret,[6],7.8%
same,WBC,[6],115.3 x10_2/uL
same,KIDNEY_L,[6],1 g
same,KIDNEY_R,[6],1 g
same,KIDNEY_TOTAL,[6],2.1 g
same,LIVER,[6],9.5 g
same,ALP,[6],1127.2 IU/L
same,ALT,[6],29 IU/L
same,AST,[6],61.6 IU/L
same,BUN,[6],16.2 mg/dL
same,CRE,[6],0.5 mg/dL
same,Ca,[6],11.6 mg/dL
same,DBIL,[6],0.016 mg/dL
same,GLC,[6],191.6 mg/dL
same,K,[6],4.9 meq/L
same,LDH,[6],149 IU/L
same,Na,[6],140.8 meq/L
same,PL,[6],134.6 mg/dL
same,RALB,[6],3.9 g/dL
same,TBIL,[6],0.3 mg/dL
same,TC,[6],72 mg/dL
same,TG,[6],47 mg/dL
same,TP,[6],5.7 g/dL
same,gamma-GTP,[6],0.8 IU/L
same,TERMINAL_BW,[7],205 g
same,APTT,[7],16.9 s
same,Bas,[7],0%
same,Eos,[7],0.8%
same,Fbg,[7],230.2 mg/dL
same,Hb,[7],14.1 g/dL
same,Ht,[7],42.1%
same,Lym,[7],65.4%
same,MCH,[7],21.4 pg
same,MCHC,[7],33.6%
same,MCV,[7],63.6 fL
same,Mono,[7],5.4%
same,Neu,[7],28.6%
same,PT,[7],12.3 s
same,Plat,[7],110.4 x10_4/uL
same,RBC,[7],662.2 x10_4/ul
same,Ret,[7],8.1%
same,WBC,[7],82.6 x10_2/uL
same,KIDNEY_L,[7],1.1 g
same,KIDNEY_R,[7],1.1 g
same,KIDNEY_TOTAL,[7],2.2 g
same,LIVER,[7],9 g
same,ALP,[7],832.2 IU/L
same,ALT,[7],26 IU/L
same,AST,[7],62.2 IU/L
same,BUN,[7],18.8 mg/dL
same,CRE,[7],0.5 mg/dL
same,Ca,[7],11.1 mg/dL
same,DBIL,[7],0.028 mg/dL
same,GLC,[7],199.2 mg/dL
same,IP,[7],11.6 mg/dL
same,K,[7],4.7 meq/L
same,LDH,[7],162.2 IU/L
same,Na,[7],140.4 meq/L
same,PL,[7],151 mg/dL
same,RALB,[7],3.9 g/dL
same,TBIL,[7],0.4 mg/dL
same,TC,[7],80 mg/dL
same,TG,[7],53 mg/dL
same,TP,[7],5.9 g/dL
same,gamma-GTP,[7],1.8 IU/L
same,TERMINAL_BW,[8],220.7 g
same,APTT,[8],16.2 s
same,Bas,[8],0%
same,Eos,[8],1.2%
same,Fbg,[8],319.8 mg/dL
same,Hb,[8],13.8 g/dL
same,Ht,[8],41%
same,Lym,[8],70.6%
same,MCH,[8],21.9 pg
same,MCHC,[8],33.6%
same,MCV,[8],65.1 fL
same,Mono,[8],9.8%
same,Neu,[8],18.2%
same,PT,[8],12.1 s
same,Plat,[8],118.1 x10_4/uL
same,RBC,[8],629.4 x10_4/ul
same,Ret,[8],7.5%
same,WBC,[8],99.2 x10_2/uL
same,KIDNEY_L,[8],1.2 g
same,KIDNEY_R,[8],1.3 g
same,KIDNEY_TOTAL,[8],2.5 g
same,ALP,[8],923.6 IU/L
same,ALT,[8],28.4 IU/L
same,AST,[8],61.8 IU/L
same,BUN,[8],24.8 mg/dL
same,CRE,[8],0.6 mg/dL
same,Ca,[8],11.2 mg/dL
same,DBIL,[8],0.048 mg/dL
same,GLC,[8],196 mg/dL
same,IP,[8],9 mg/dL
same,K,[8],4.7 meq/L
same,LDH,[8],157 IU/L
same,Na,[8],139.8 meq/L
same,PL,[8],159.6 mg/dL
same,RALB,[8],3.8 g/dL
same,TBIL,[8],0.3 mg/dL
same,TC,[8],90.6 mg/dL
same,TG,[8],87.2 mg/dL
same,TP,[8],6 g/dL
same,gamma-GTP,[8],2 IU/L
